Source: patent publication US9951064B2, “Azaindazole compounds as inhibitors of T790M containing EGFR mutants” (Genentech, Inc., priority 2013, dated 2018)

How the values were obtained:
EGFR del746-750 T790M = molecular target: T1, EGFR del746-750 T790M (Homo sapiens, UniProt P00533, DEL746-750/T790M); assay: EGFR del746-750 T790M biochemical assay (Caliper mobility shift); conditions: 5 μM ATP; apparent Ki (Morrison fit) converted by Cheng-Prusoff, Km of ATP 2.1 μM; read-out: EGFR(T790M/d746-750) Ki
T1 construct: purchased Carna Biosciences 08-528
Summary of the method: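 Kinase reactions ran 30 min at room temperature (22 °C), then were stopped with 80 mM EDTA. Phosphorylated product and substrate were separated electrophoretically and quantified by Caliper mobility shift.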

[1] = molecular target: T2, phosphor-EGFR in H1975(L585R/T790M) mutant EGFR expressing cells (Homo sapiens, UniProt P00533, L858R/T790M); assay: H1975 pEGFR MSD cellular assay; format: cell-based; conditions: NCI-H1975 cells, serum starved, 1 hour compound incubation, pEGFR Tyr1068 MSD; read-out: HI975 pEGFR EC50
T2 construct: host or cells: NCI-H1975
Summary of the method: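 NCI-H1975 cells, 30,000/well, serum-starved overnight, then treated 1 hour at 37° C with serially diluted compounds in serum-free medium (0.5% DMSO). Lysates captured on anti-phospho-EGFR plates overnight at 4° C, detected with SULFO-TAG anti-total EGFR by electrochemiluminescence. Inhibition vs untreated controls; EC50 from 4-parameter logistic fit.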

EGFR T790M L858R = molecular target: T3, EGFR T790M L858R (Homo sapiens, UniProt P00533, L858R/T790M); assay: EGFR T790M L858R biochemical assay (Caliper mobility shift); conditions: 5 μM ATP; apparent Ki (Morrison fit) converted by Cheng-Prusoff, Km of ATP 1.3 μM
T3 construct: purchased Life Technologies PV4879
Summary of the method: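 Reactions run 30 minutes at room temperature (22 °C), stopped with 80 mM EDTA. Phosphorylated product and substrate separated electrophoretically and quantified by Caliper mobility shift.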

[2] = tested on: H1975 (EGFR T790M/L858R) cell proliferation; assay: H1975 proliferation assay (Cell Titer-Glo); format: cell-based; conditions: Homo sapiens, NCI-H1975, 72 h, NCI-H1975 cells, 72 hour incubation, read-out: H1975 antiproliferative EC50
Protocol: H1975 Proliferation Assays
All cell culture reagents were purchased from Invitrogen/Gibco. Cells are cultured at 37° C. at 5% CO2 and split as recommended by ATCC.

T3 sequence (P00533 25-1210 T790M/L858R): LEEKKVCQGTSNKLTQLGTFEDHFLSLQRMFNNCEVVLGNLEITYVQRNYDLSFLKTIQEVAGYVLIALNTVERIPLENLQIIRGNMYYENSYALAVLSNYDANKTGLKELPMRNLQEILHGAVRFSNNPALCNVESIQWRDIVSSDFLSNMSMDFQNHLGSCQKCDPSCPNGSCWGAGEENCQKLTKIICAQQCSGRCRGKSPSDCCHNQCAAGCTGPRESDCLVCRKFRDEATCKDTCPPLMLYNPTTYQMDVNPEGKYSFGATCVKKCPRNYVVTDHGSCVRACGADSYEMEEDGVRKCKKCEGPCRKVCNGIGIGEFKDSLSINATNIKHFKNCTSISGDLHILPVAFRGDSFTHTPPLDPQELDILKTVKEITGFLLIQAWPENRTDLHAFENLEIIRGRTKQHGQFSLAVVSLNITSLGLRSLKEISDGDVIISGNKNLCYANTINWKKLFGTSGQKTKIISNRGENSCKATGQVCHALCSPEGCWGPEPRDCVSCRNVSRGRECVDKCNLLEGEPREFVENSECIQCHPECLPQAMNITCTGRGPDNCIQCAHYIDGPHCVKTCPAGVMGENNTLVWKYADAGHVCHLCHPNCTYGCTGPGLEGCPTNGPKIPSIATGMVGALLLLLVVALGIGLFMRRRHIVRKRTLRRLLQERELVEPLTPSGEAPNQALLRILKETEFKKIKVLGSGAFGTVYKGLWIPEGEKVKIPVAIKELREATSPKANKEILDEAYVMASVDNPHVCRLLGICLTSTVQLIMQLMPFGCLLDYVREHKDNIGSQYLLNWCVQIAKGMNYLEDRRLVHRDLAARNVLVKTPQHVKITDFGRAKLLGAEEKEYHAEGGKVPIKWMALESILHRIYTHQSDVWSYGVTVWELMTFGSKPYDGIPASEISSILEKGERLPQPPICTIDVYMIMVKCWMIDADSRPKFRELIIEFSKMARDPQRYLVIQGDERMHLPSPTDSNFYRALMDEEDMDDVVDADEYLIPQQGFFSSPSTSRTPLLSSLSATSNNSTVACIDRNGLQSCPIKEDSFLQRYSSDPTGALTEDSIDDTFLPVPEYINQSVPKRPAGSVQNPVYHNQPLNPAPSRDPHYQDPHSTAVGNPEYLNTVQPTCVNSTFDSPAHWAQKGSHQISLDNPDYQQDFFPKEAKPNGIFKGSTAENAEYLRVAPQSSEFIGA
T2 sequence (P00533 25-1210 T790M/L858R): as above
T1 sequence (P00533 with tags, fused parts or gaps DEL746-750/T790M limits assumed): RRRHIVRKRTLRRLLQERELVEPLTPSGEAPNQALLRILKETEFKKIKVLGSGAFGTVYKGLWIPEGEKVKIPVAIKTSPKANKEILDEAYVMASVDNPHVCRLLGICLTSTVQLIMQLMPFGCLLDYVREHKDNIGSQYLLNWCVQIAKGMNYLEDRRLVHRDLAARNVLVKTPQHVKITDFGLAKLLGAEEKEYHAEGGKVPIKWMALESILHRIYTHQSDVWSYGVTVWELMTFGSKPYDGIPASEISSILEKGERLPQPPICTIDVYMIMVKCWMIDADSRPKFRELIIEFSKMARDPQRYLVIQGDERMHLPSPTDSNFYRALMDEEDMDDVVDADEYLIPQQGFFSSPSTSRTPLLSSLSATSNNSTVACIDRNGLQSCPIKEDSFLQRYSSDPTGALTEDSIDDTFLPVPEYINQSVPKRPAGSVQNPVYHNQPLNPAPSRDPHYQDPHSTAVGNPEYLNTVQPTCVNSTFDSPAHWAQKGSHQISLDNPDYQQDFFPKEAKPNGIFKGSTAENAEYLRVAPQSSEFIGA

| Structure (SMILES) | Ki (EGFR del746-750 T790M) [µM] | EC50 [1] [µM] | Ki (EGFR T790M L858R) [µM] | EC50 [2] [µM] |
| --- | --- | --- | --- | --- |
| CC(C)n1nc(N2CC[C@H](O)C2)c2cnc(Nc3ccnc(-c4cnn(S(=O)(=O)C5CC5)c4)n3)cc21 [Example 123, (S)-1-(6-(2-(1-(Cyclopropylsulfonyl)-1H-pyrazol-4-yl)pyrimidin-4-ylamino)-1-isopropyl-1H-pyrazolo[4,3-c]pyridin-3-yl)pyrrolidin-3-ol] | 0.0006 | 0.0044 | 0.0006 | 0.201 |
| CC(C)n1nc(N2CC(O)(CO)C2)c2cnc(Nc3ccnc(-c4cnn(S(=O)(=O)C5CC5)c4)n3)cc21 [Example 124, 1-(6-(2-(1-(Cyclopropylsulfonyl)-1H-pyrazol-4-yl)pyrimidin-4-ylamino)-1-isopropyl-1H-pyrazolo[4,3-c]pyridin-3-yl)-3-(hydroxymethyl)azetidin-3-ol] | 0.0007 | 0.248 | 0.0007 | 0.66 |
| CC(C)n1nc(NCCS(C)(=N)=O)c2cnc(Nc3ccnc(-c4cnn(S(=O)(=O)C5CC5)c4)n3)cc21 (centres unmarked) [Example 125, N^6-(2-(1-(Cyclopropylsulfonyl)-1H-pyrazol-4-yl)pyrimidin-4-yl)-1-isopropyl-N^3-(2-(S-methylsulfonimidoyl)ethyl)-1H-pyrazolo[4,3-c]pyridine-3.6-diamine] | 0.0008 | 2.84 | 0.0011 | > 10 |
| CC(C)n1nc(N2CC3(CN(CC(F)(F)F)C3)C2)c2cnc(Nc3ccnc(-c4cnn(S(=O)(=O)C5CC5)c4)n3)cc21 [Example 126, N-(2-(1-(Cyclopropylsulfonyl)-1H-pyrazol-4-yl)pyrimidin-4-yl)-1-isopropyl-3-(6-(2,2,2-trifluoroethyl)-2,6-diazaspiro[3.3]heptan-2-yl)-1H-pyrazolo[4,3-c]pyridin-6-amine] | 0.0046 | 0.0801 | 0.0053 | 1.14 |
| CC(C)n1nc(N2CCO[C@H](CO)C2)c2cnc(Nc3ccnc(N4CC[C@H](O)[C@H](F)C4)n3)cc21 [Example 132, cis-3-Fluoro-1-(4-(3-((S)-2-(hydroxymethyl)morpholino)-1-isopropyl-1H-pyrazolo[4,3-c]pyridin-6-ylamino)pyrimidin-2-yl)piperidin-4-ol] | 0.0146 | 1.43 | 0.0049 | > 10 |
| CC(C)n1nc(N2CC(C#N)CC2=O)c2cnc(Nc3ccnc(N4CCC(C)(O)CC4)n3)cc21 (centres unmarked) [Example 137, 1-(6-(2-(4-Hydroxy-4-methylpiperidin-1-yl)pyrimidin-4-ylamino)-1-isopropyl-1H-pyrazolo[4,3-c]pyridin-3-yl)-5-oxopyrrolidine-3-carbonitrile] | 0.027 | 0.715 | 0.0101 | 1.09 |
| CC(C)n1nc(N2CC3(C2)C[S+]([O-])C3)c2cnc(Nc3ccnc(N4CCC(C)(O)CC4)n3)cc21 [Example 138, 6-(6-((2-(4-Hydroxy-4-methylpiperidin-1-yl)pyrimidin-4-yl)amino)-1-isopropyl-1H-pyrazolo[4,3-c]pyridin-3-yl)-2-thia-6-azaspiro[3.3]heptane 2-oxide] | 0.0196 | 1.41 | 0.0046 | 3.91 |
| CC(C)n1nc(NCCC2OCC(N)CO2)c2cnc(Nc3ccnc(N4CCC(C)(O)CC4)n3)cc21 (centres unmarked) [Example 139, 1-(4-(3-(2-(5-Amino-1,3-dioxan-2-yl)ethylamino)-1-isopropyl-1H-pyrazol[4,3-c]pyridin-6-ylamino)pyrimidin-2-yl)-4-methylpiperidin-4-ol] | 0.0183 | 6.07 | 0.0071 | > 10 |
| CC(n1nc(N2CC[C@@H](O)C2)c2cnc(Nc3ccnc(N4CCC(C)(O)CC4)n3)cc21)C(F)(F)F (stereo partly drawn) [Example 143, 1-(4-(3-((R)-3-Hydroxypyrrolidin-1-yl)-1-(1,1,1-trifluoropropan-2-yl)-1H-pyrazolo[4,3-c]pyridin-6-ylamino)pyrimidin-2-yl)-4-methylpiperidin-4-ol] | 0.0113 | 0.219 | 0.0029 | 0.901 |
| CCC(C)n1nc(N2CC[C@H](C(N)=O)C2)c2cnc(Nc3ccnc(N4CCC(C)(O)CC4)n3)cc21 (stereo partly drawn) [Example 144, (3S)-1-(1-sec-Butyl-6-(2-(4-hydroxy-4-methylpiperidin-1-yl)pyrimidin-4-ylamino)-1H-pyrazolo[4,3-c]pyridin-3-yl)pyrrolidine-3-carboxamide] | 0.0021 | 0.941 | 0.0018 | 2.2 |
| CCC(C)n1nc(N2CC[C@@H](C(N)=O)C2)c2cnc(Nc3ccnc(N4CCC(C)(O)CC4)n3)cc21 (stereo partly drawn) [Example 145, (3R)-1-(1-sec-Butyl-6-(2-(4-hydroxy-4-methylpiperidin-1-yl)pyrimidin-4-ylamino)-1H-pyrazolo[4,3-c]pyridin-3-yl)pyrrolidine-3-carboxamide] | 0.0016 | 0.921 | 0.0014 | 7.17 |
| CCC(C)n1nc(N2CC(F)(F)C2)c2cnc(Nc3ccnc(N4CCC(C)(O)CC4)n3)cc21 (centres unmarked) [Example 146, 1-(4-(1-sec-Butyl-3-(3,3-difluoroazetidin-1-yl)-1H-pyrazolo[4,3-c]pyridin-6-ylamino)pyrimidin-2-yl)-4-methylpiperidin-4-ol] | 0.0049 | 0.277 | 0.0025 | 1.6 |
| CC(C)n1nc(N2CC(C(C)(C)O)C2)c2cnc(Nc3ccnc(-c4cnn(S(=O)(=O)C5CC5)c4)n3)cc21 [Example 149, 2-(1-(6-(2-(1-(Cyclopropylsulfonyl)-1H-pyrazol-4-yl)pyrimidin-4-ylamino)-1-isopropyl-1H-pyrazolo[4,3-c]pyridin-3-yl)azetidin-3-yl)propan-2-ol] | 0.0012 | 0.0519 | 0.0021 | 0.423 |
| CC(C)n1nc(N2CCCNC2=O)c2cnc(Nc3ccnc(-c4cnn(S(=O)(=O)C5CC5)c4)n3)cc21 [Example 150, 3-(6-(2-(1-(Cyclopropylsulfonyl)-1H-pyrazol-4-yl)pyrimidin-4-ylamino)-1-isopropyl-1H-pyrazolo[4,3-c]pyridin-3-yl)-tetrahydropyrimidin-2(1H)-one] | 0.0036 | 0.243 | 0.0049 | 0.765 |
| CCN1CCN(c2nn(C(C)C)c3cc(Nc4ccnc(-c5cnn(S(=O)(=O)C6CC6)c5)n4)ncc23)C1=O [Example 151, 1-(6-(2-(1-(Cyclopropylsulfonyl)-1H-pyrazol-4-yl)pyrimidin-4-ylamino)-1-isopropyl-1H-pyrazolo[4,3-c]pyridin-3-yl)-3-ethylimidazolidin-2-one] | 0.0063 | 0.363 | 0.0087 | 0.929 |
| CC(C)n1nc(N2CC(C(C)(C)C#N)C2)c2cnc(Nc3ccnc(-c4cnn(S(=O)(=O)C5CC5)c4)n3)cc21 [Example 153, 2-(1-(6-(2-(1-(Cyclopropylsulfonyl)-1H-pyrazol-4-yl)pyrimidin-4-ylamino)-1-isopropyl-1H-pyrazolo[4,3-c]pyridin-3-yl)azetidin-3-yl)-2-methylpropanenitrile] | 0.0019 | 0.133 | 0.0021 | 1.38 |
| CC(C)n1nc(N2CC(F)(F)C2)c2cnc(Nc3ccnc(-c4cnn(S(=O)(=O)C5CC5)c4)n3)cc21 [Example 154, N-(2-(1-(Cyclopropylsulfonyl)-1H-pyrazol-4-yl)pyrimidin-4-yl)-3-(3,3-difluoroazetidin-1-yl)-1-isopropyl-1H-pyrazolo[4,3-c]pyridin-6-amine] | 0.0029 | 0.082 | 0.0028 | 0.312 |
